Laboratory results taken from the NIST ThermoML archive (doi:10.1007/s10765-009-0602-6).

Test: molar heat capacity at constant volume; xn = mol fraction of the nth substance listed
Conditions: Fluid (supercritical or subcritical phases), isochoric heat capacity, x1 = 0.2607

N [ammonia] + O
Conditions	molar heat capacity at constant volume [J/K/mol]
605.3 K, Mass density=329 kg/m3	82.4
605.39 K, Mass density=147.43 kg/m3	55.23
605.39 K, Mass density=329 kg/m3	83.73
605.47 K, Mass density=147.43 kg/m3	52.57
605.56 K, Mass density=329 kg/m3	84.16
605.64 K, Mass density=147.43 kg/m3	54.75
605.73 K, Mass density=147.43 kg/m3	55.07
605.82 K, Mass density=147.43 kg/m3	55.82
605.9 K, Mass density=147.43 kg/m3	54.48
606.33 K, Mass density=195.99 kg/m3	62.19
606.41 K, Mass density=195.99 kg/m3	62.19
606.41 K, Mass density=376.89 kg/m3	80.52
606.5 K, Mass density=195.99 kg/m3	62.44
606.58 K, Mass density=376.89 kg/m3	81.48
606.66 K, Mass density=195.99 kg/m3	62.01
606.67 K, Mass density=376.89 kg/m3	83.04
606.75 K, Mass density=195.99 kg/m3	62.31
606.76 K, Mass density=376.89 kg/m3	82.08
606.84 K, Mass density=195.99 kg/m3	62.12
606.84 K, Mass density=376.89 kg/m3	79.68
607.69 K, Mass density=342.18 kg/m3	76.36
607.78 K, Mass density=309.95 kg/m3	83.5
607.78 K, Mass density=342.18 kg/m3	81.1
607.86 K, Mass density=342.18 kg/m3	78.56
607.86 K, Mass density=376.89 kg/m3	79.35
607.87 K, Mass density=309.95 kg/m3	80.85
607.95 K, Mass density=309.95 kg/m3	86.43
607.95 K, Mass density=342.18 kg/m3	76.04
607.95 K, Mass density=376.89 kg/m3	80.25
608.04 K, Mass density=309.95 kg/m3	82.99
608.04 K, Mass density=376.89 kg/m3	78.87
608.12 K, Mass density=376.89 kg/m3	77.04
608.19 K, Mass density=160.07 kg/m3	52.92
608.21 K, Mass density=309.95 kg/m3	84.23
608.21 K, Mass density=376.89 kg/m3	75.92
608.29 K, Mass density=376.89 kg/m3	79.42
608.38 K, Mass density=376.89 kg/m3	76.18
608.4 K, Mass density=160.07 kg/m3	53.56
608.54 K, Mass density=160.07 kg/m3	51.75
608.63 K, Mass density=160.07 kg/m3	53.4
608.72 K, Mass density=160.07 kg/m3	52.1
608.81 K, Mass density=160.07 kg/m3	52.48
608.9 K, Mass density=160.07 kg/m3	52.35
609.06 K, Mass density=195.99 kg/m3	62.14
609.14 K, Mass density=195.99 kg/m3	62.71
609.23 K, Mass density=195.99 kg/m3	62.28
609.3 K, Mass density=195.99 kg/m3	63.31
609.4 K, Mass density=195.99 kg/m3	62.65
609.4 K, Mass density=320.33 kg/m3	87.43
609.48 K, Mass density=195.99 kg/m3	63.19
609.48 K, Mass density=294.44 kg/m3	91.17
609.48 K, Mass density=320.33 kg/m3	84.26
609.57 K, Mass density=294.44 kg/m3	89.27
609.57 K, Mass density=320.33 kg/m3	85.97
609.65 K, Mass density=294.44 kg/m3	87.71
609.65 K, Mass density=308.35 kg/m3	76.86
609.65 K, Mass density=320.33 kg/m3	80.69
609.74 K, Mass density=195.99 kg/m3	62.31
609.74 K, Mass density=294.44 kg/m3	89.93
609.74 K, Mass density=320.33 kg/m3	83.43
609.82 K, Mass density=294.44 kg/m3	89.02
609.82 K, Mass density=308.35 kg/m3	74.71
609.91 K, Mass density=308.35 kg/m3	78.67
609.99 K, Mass density=308.35 kg/m3	77.82
610.08 K, Mass density=308.35 kg/m3	76.77
610.17 K, Mass density=312.91 kg/m3	84.03
610.25 K, Mass density=312.91 kg/m3	83.02
610.33 K, Mass density=312.91 kg/m3	81.99
610.42 K, Mass density=311.19 kg/m3	84.41
610.42 K, Mass density=312.91 kg/m3	81.69
610.51 K, Mass density=311.19 kg/m3	81.05
610.51 K, Mass density=312.91 kg/m3	81.85
610.53 K, Mass density=311.19 kg/m3	82.17
610.59 K, Mass density=307.35 kg/m3	83.84
610.59 K, Mass density=312.91 kg/m3	80.77
610.68 K, Mass density=307.35 kg/m3	83.61
610.76 K, Mass density=307.35 kg/m3	85.1
610.77 K, Mass density=311.19 kg/m3	80
610.84 K, Mass density=311.19 kg/m3	82.42
610.85 K, Mass density=307.35 kg/m3	81.92
610.93 K, Mass density=307.35 kg/m3	80.84
611.02 K, Mass density=301.94 kg/m3	85.7
611.02 K, Mass density=307.35 kg/m3	83.41
611.1 K, Mass density=301.94 kg/m3	86.38
611.1 K, Mass density=307.35 kg/m3	81.26
611.19 K, Mass density=299.79 kg/m3	81.78
611.23 K, Mass density=301.94 kg/m3	84.69
611.27 K, Mass density=299.79 kg/m3	82.1
611.35 K, Mass density=230.31 kg/m3	80.27
611.35 K, Mass density=301.94 kg/m3	83.16
611.36 K, Mass density=299.79 kg/m3	80.3
611.44 K, Mass density=230.31 kg/m3	81.01
611.44 K, Mass density=299.79 kg/m3	81.57
611.44 K, Mass density=301.94 kg/m3	83.38
611.52 K, Mass density=230.31 kg/m3	77.59
611.53 K, Mass density=299.79 kg/m3	80.94
611.57 K, Mass density=230.31 kg/m3	78.33
611.61 K, Mass density=299.79 kg/m3	79.86
611.61 K, Mass density=301.94 kg/m3	85.13
611.8 K, Mass density=230.31 kg/m3	77.07
612.29 K, Mass density=342.18 kg/m3	78.23
612.46 K, Mass density=376.89 kg/m3	76.4
612.55 K, Mass density=342.18 kg/m3	77.21
612.55 K, Mass density=376.89 kg/m3	78.49
612.63 K, Mass density=342.18 kg/m3	78.71
612.63 K, Mass density=376.89 kg/m3	74.83
612.8 K, Mass density=342.18 kg/m3	78.26
612.8 K, Mass density=376.89 kg/m3	75.58
612.89 K, Mass density=376.89 kg/m3	77.5
615.18 K, Mass density=160.07 kg/m3	57.18
615.27 K, Mass density=160.07 kg/m3	57.36
615.35 K, Mass density=160.07 kg/m3	59.17
615.52 K, Mass density=160.07 kg/m3	57.77
615.61 K, Mass density=160.07 kg/m3	57.15
615.69 K, Mass density=160.07 kg/m3	58.32
615.78 K, Mass density=160.07 kg/m3	59.81
615.86 K, Mass density=311.19 kg/m3	80.59
615.94 K, Mass density=311.19 kg/m3	82.26
615.94 K, Mass density=312.91 kg/m3	84.14
616.03 K, Mass density=311.19 kg/m3	78.26
616.03 K, Mass density=312.91 kg/m3	81.62
616.2 K, Mass density=309.95 kg/m3	81.9
616.2 K, Mass density=311.19 kg/m3	79.08
616.2 K, Mass density=312.91 kg/m3	78.12
616.24 K, Mass density=329 kg/m3	79.1
616.28 K, Mass density=309.95 kg/m3	81.26
616.29 K, Mass density=312.91 kg/m3	77.14
616.37 K, Mass density=309.95 kg/m3	80.5
616.37 K, Mass density=311.19 kg/m3	78.05
616.37 K, Mass density=312.91 kg/m3	80.69
616.45 K, Mass density=309.95 kg/m3	78.62
616.45 K, Mass density=329 kg/m3	75.46
616.54 K, Mass density=329 kg/m3	77.16
616.55 K, Mass density=309.95 kg/m3	82.93
616.62 K, Mass density=329 kg/m3	76.27
616.69 K, Mass density=299.79 kg/m3	82.29
616.71 K, Mass density=329 kg/m3	76.77
616.84 K, Mass density=299.79 kg/m3	80.34
616.95 K, Mass density=299.79 kg/m3	81.41
617.05 K, Mass density=299.79 kg/m3	82.13
617.13 K, Mass density=299.79 kg/m3	79.98
617.31 K, Mass density=299.79 kg/m3	80.5
617.46 K, Mass density=299.79 kg/m3	80.93
618.23 K, Mass density=342.18 kg/m3	78.08
618.32 K, Mass density=342.18 kg/m3	77.48
618.5 K, Mass density=342.18 kg/m3	78.3
618.57 K, Mass density=342.18 kg/m3	78.49
618.66 K, Mass density=342.18 kg/m3	76.77
619.76 K, Mass density=297.6 kg/m3	76.26
619.93 K, Mass density=297.6 kg/m3	75.1
620.01 K, Mass density=297.6 kg/m3	77.64
620.1 K, Mass density=297.6 kg/m3	76.82
624.74 K, Mass density=160.07 kg/m3	61.66
624.83 K, Mass density=160.07 kg/m3	63.49
624.99 K, Mass density=160.07 kg/m3	62.99
625.08 K, Mass density=160.07 kg/m3	60.95
625.16 K, Mass density=160.07 kg/m3	64.25
633.07 K, Mass density=160.07 kg/m3	67.64
633.16 K, Mass density=160.07 kg/m3	68.71
633.33 K, Mass density=160.07 kg/m3	67.18
633.49 K, Mass density=160.07 kg/m3	68.49
633.58 K, Mass density=160.07 kg/m3	67.41
633.66 K, Mass density=160.07 kg/m3	67.98
